Patent US6255517A, “Thymol derivatives having anti-tumor activity, and anti-cancer agent comprising the same” (Zee; Ok Pyo, priority 1998, dated 2001)
Read-outs that look alike come from different tables or passages of the source.

How the values were obtained:
Assay type in all cases: cell-based
SK-MEL-2 = assay: SRB cytotoxicity (anti-tumor activity) in vitro, SK-MEL-2; conditions: Homo sapiens, SK-MEL-2 malignant melanoma, 48 hours, read-out: ED50 (the source's name)
From the text: (§1) Anti-Tumor (Cyto-Toxicity) Effect in vitro of the Compound According to the Present Invention
(§2) The method for detecting cyto-toxicity employed in the present experiment is Sulforhodamin B Bioassay (SRB) method, which was developed by National Cancer Institute (NCI) in the United States in 1989, for the purpose of measuring anti-tumor activity in vitro.
(§3) The tumor cells used in the experiments via SRB method are listed below:
SK-MEL-2: malignant melanoma, metastasis to skin of thigh
(§4) The tumor cells listed above are all human tumor cell-lines, which were distributed from NCI in the United States and subcultured in Korea Chemical Institute. As a culture medium, RPMI 1640 culture medium supplemented with 5% FBS (fetal bovine serum) was used. Cultivation was performed in an 5% CO2 incubator with constant temperature (37° C.) and humidity. The subculture was carried out every three or four days, and a solution of 0.25% tyrosine and 3 mM trans-1,2-diaminocyclohexane-n,n,n,n-tetracetic acid (CDTA) dissolved in PBS (phosphate buffered saline) was used in order to release cells from the surface of the container.
(§5) The test compound synthesized according to the present invention was diluted to have a concentration of 30.0 μg/ml, 10.0 μg/ml, 3.0 μg/ml, 1.0 μg/ml, 0.3 μg/ml and 0.1 μg/ml, respectively, and the cyto-toxicity (anti-tumor activity) of the compound was measured. The maximum concentration of the sample was not more than 30.0 μg/ml. In order to prepare the samples for detection, DMSO (dimethylsulfoxide) was used, if necessary. The concentration of DMSO added was not more than 0.5%. Before added to the tumor cells, the sample solution, which was diluted via several steps, is filtered through a Millipore filter. In a sterile condition, the sample for detecting cyto-toxicity was prepared by means of SRB method using human tumor cell-lines such as A549, SK-OV-3, SK-MEL-2, XF498 and HCT15.
(§6) The subcultured tumor cells were released from the surface of instrument by using tyrosine-CDTA solution, and then charged on a 96-well flat bottom microplate to make the cell number 5×10^3 (A549, HCT15), 1×10^4 (SK-MEL-2, XF498) and 2×10^4 (SK-OV-3) for each cell. The tumor cells are attached on the bottom by cultivating in a CO2 incubator. After removing the culture medium by using an aspirator, the medium is eliminated by using log dose of six concentrations. To each well, 100 μl of 10% TCA (trichloroacetic acid) is added, and the plate was left for 1 hour at 4° C. to fix the cells on the bottom surface of the plate.
(§7) Then, the plate was washed with distilled water 5-6 times to completely remove the residual TCA solution, and dried up at room temperature. To each well of the completely dried plate, 100 μl of dye solution, in which 0.4% SRB solution was dissolved, was added to dye the cells for 30 minutes, and the cells were washed with 1% acetic acid to remove excess SRB which was not combined with the cells. The dyed cell plates were dried at room temperature, and 100 μl of 10 mM trisma base solution was added to each well. The solution was mixed by a titer plate shaker for 10 minutes to elute the dye solution. Then, the absorbance at 520 nm was measured by using a microplate reader.
(§8) In order to calculate the cyto-toxicity (anti-tumor activity) of the samples on tumor cells, the number of tumor cells at the point of adding the sample (Tz, zero time), the number of cells when only an excess amount of culture medium was added instead of the sample and cultured for 48 hours (C, control), and the number of cells when each concentration of the sample was added and cultured for 48 hours (T, test) were measured respectively. The cyto-toxicity was determined according to the following formulas:
(§9) When Tz>T: [(T-Tz)/(C-Tz)]×100
(§10) When Tz<T: [(T-Tz)/Tz]×100
(§11) From the calculated values thus obtained, ED50 (50% effective dose) [the concentration when the sample inhibits 50% of the growth of the tumor cells] was determined by the use of data regression tool of LOTUS program. […]

XF498 = assay: SRB cytotoxicity (anti-tumor activity) in vitro, XF498; conditions: Homo sapiens, XF498 central nerve system tumor, 48 hours, read-out: ED50 (the source's name)
From the text: as §1, §2, §3
XF498: central nerve system tumor
as §4, §5, §6, §7, §8, §9, §10, §11

SK-OV-3 = assay: SRB cytotoxicity (anti-tumor activity) in vitro, SK-OV-3; conditions: Homo sapiens, SK-OV-3 ovary adenocarcinoma, 48 hours, read-out: ED50 (the source's name)
From the text: as §1, §2, §3
SK-OV-3: adenocarcinoma, ovary malignant ascites
as §4, §5, §6, §7, §8, §9, §10, §11

HCT15 = assay: SRB cytotoxicity (anti-tumor activity) in vitro, HCT15; conditions: Homo sapiens, HCT-15, HCT15 colon adenocarcinoma, 48 hours, read-out: ED50 (the source's name)
From the text: as §1, §2, §3
HCT15: colon adenocarcinoma
as §4, §5, §6, §7, §8, §9, §10, §11

A549 = assay: SRB cytotoxicity (anti-tumor activity) in vitro, A549; conditions: Homo sapiens
From the text: as §1, §2, §3
A549: non small cell lungcarcinoma
as §4, §5, §6, §7, §8, §9, §10, §11

[1] = A549 non small cell lung carcinoma, SRB, 48 hours, read-out: ED50 (the source's name)

Compound | IC50 (SK-MEL-2) [µM] | IC50 (XF498) [µM] | IC50 (SK-OV-3) [µM] | IC50 (HCT15) [µM] | IC50 (A549; [1]) [µM] | IC50 (A549; A549, 48 h, read-out: ED50) [µM]
COc1ccc(C(=O)OCC(O)(CO)c2ccc(C)cc2OC(C)=O)cc1 (centres unmarked) [Compound 15-7, 10-(4-Methoxybenzoxy)-8,9-dihydroxythymol acetate] | 14.9 | 63.3 | 38.2 | 15 | > 100 | –
Cc1ccc(C(O)(CO)COC(=O)Cc2ccc(F)cc2)c(OC(=O)C(C)C)c1 (centres unmarked) [Compound 15-8, 10-(4-Fluorophenylacetoxy)-8,9-dihydroxythymol isobutyrate] | 10.8 | 55.9 | 24.2 | 12.2 | > 100 | –
CC(=O)Oc1ccc(C2(COC(=O)Cc3ccccc3)CO2)c(OC(C)=O)c1 (centres unmarked) [Compound 27-1, 2-(2',4'-Diacetoxyphenyl)-3-phenylacetoxy-1,2-epoxypropane] | 4.5 | 4.7 | 2.9 | 3 | – | 30.6
CC(=O)Oc1ccc(C2(COC(=O)Cc3ccc([N+](=O)[O-])cc3)CO2)c(OC(C)=O)c1 (centres unmarked) [Compound 27-2, 2-(2',4'-Diacetoxyphenyl)-3-(4-nitrophenylacetoxy)-1,2-epoxypropane] | 3.8 | 4.1 | 2.7 | 2.4 | 23.5 | –
CC(=O)Oc1ccc(C2(COC(=O)Cc3ccc(F)cc3)CO2)c(OC(C)=O)c1 (centres unmarked) [Compound 27-3, 2-(2',4'-Diacetoxyphenyl)-3-(4-fluorophenylacetoxy)-1,2-epoxypropane] | 9.3 | 11 | 3.9 | 4.5 | 36.7 | –
CC(=O)OCC1(c2ccc(OC(C)=O)cc2OC(C)=O)CO1 (centres unmarked) [Compound 27-5, 2-(2',4'-Diacetoxyphenyl)-3-acetoxy-1,2-epoxypropane] | 4.8 | 5 | 2.9 | 1.4 | 18.6 | –
CC(=O)Oc1ccccc1C1(COC(=O)Cc2ccccc2)CO1 (centres unmarked) [Compound 33-1] | 9.3 | 9.8 | 11.5 | 10.4 | – | 42.8
CC(=O)Oc1ccccc1C1(COC(=O)Cc2ccc([N+](=O)[O-])cc2)CO1 (centres unmarked) [Compound 33-2] | 14.2 | 16.4 | 24.4 | 17.3 | 44.3 | –
CC(=O)Oc1ccccc1C1(COC(=O)c2ccccc2)CO1 (centres unmarked) [Compound 33-5] | 8.5 | 6.2 | 9.9 | 7 | 43.3 | –
CC(=O)Oc1ccccc1C1(COC(=O)c2ccc(C)cc2)CO1 (centres unmarked) [Compound 33-6] | 6.9 | 8.7 | 10.6 | 9.3 | 41.4 | –
C=C(CO)c1ccc(C)cc1OCc1ccc([N+](=O)[O-])cc1 [Compound 35, 2-(2-(4'-nitrobenzyloxy)-4-methylphenyl)-prop-2-ene-1-ol] | 9.1 | 5.5 | 0.3 | 8.7 | 4.6 | –
C=C(CO)c1ccc(C)cc1OCc1ccc(OC)cc1 [Compound 35-1] | 12.7 | 11.8 | 13.1 | 12.1 | 10.6 | –
C=C(CO)c1ccc(C)cc1OCc1ccc(C)cc1 [Compound 35-2, 2-(2-(4'-Methylbenzyloxy)-4-methylphenyl)-prop-2-ene-1-ol] | 8.8 | 7.2 | 9.6 | 9.1 | 10.9 | –
